For test [1], the target named is recombinant human AMPK complex 7 (containing α2β1γ1) (Homo sapiens (Human), UniProt P54646+Q9Y478). The experiment in a line: in vitro AMPK activation assay (AMPKSAMSF), complex 7. Format: biochemical. The conditions noted are these: for Emax: 10-point titration, expressed as % maximum AMP activation; for EC50: inflection point reflecting 50% of the maximum activation, table head names AMPK complex 7. As to the method: AMPKSAMSF (in vitro AMPK activation assay)
The recombinant human AMPK complex 1 (containing α1β1γ1) or AMPK complex 7 (containing α2β1γ1) was obtained from baculovirus expression system. Recombinant viruses were generated by cotransfection of AMPK/pBacPak9 clones with Baculogold baculovirus DNA (Pharmingen) in spodoptera frugiperda 21 cells according to the manufacturer's instructions. Each round of virus amplification was performed for 5 days in Grace's medium containing 10% serum. Virus that had been subjected to three rounds of amplification was used for all protein production procedures. To express the AMPK complex, sf21 cells were adapted to serum free medium (SF900II, Invitrogen) by sequential dilution from serum containing stocks into SF900II medium and maintained in shaker flasks at 90 rpm at 27° C. The recombinant AMPK enzyme complex was produced by triple infection, one recombinant virus for each of the subunits, in sf21 cells under serum free conditions. Cells were infected in log phase, 1×10^6 cells/ml, at a multiplicity of infection of 5. Cells were harvested by centrifugation at 10,000×g for 15 minutes after 72 hours of infection with viruses. The insect cell pellet from 2 liters of culture was resuspended in 50 ml lysis buffer (20 mM Tris-HCl, 50 mM NaCl, 50 mM NaF, 30 mM Na PPi, 0.25 M sucrose, 10 mM ZnCl2, 2 mM DTT, 0.4 mg/ml digitonin) and subjected to two cycles of freeze-thaw lysis in a dry-ice ethanol bath. Insoluble material was removed by centrifugation at 10,000×g and the supernatant was fractionated with use of polyethylene glycol (PEG). The protein fraction precipitating between 2.5 and 6% PEG was used for further purification using a Blue-Sepharose step (Zhou et al, J. Clin. Invest. 108, 1167-1174, 2001).
The in vitro AMPK activation assay is performed in a volume of 30 μl in a 384-well plate. Enzyme reactions were assembled in the microtiter plate by adding 15 μl of 2× enzyme in assay buffer (20 mM HEPES, pH 7.3, 5 mM MgCl2, 3 mM DTT, 0.01% Brij 35 and CamK Kinase, to activate AMPK) to wells which contained either DMSO or compound. The reaction was initiated with the addition of 15 μl 2× substrate mixture containing 200 μM ATP, and 3.0 μM fluorescently labeled SAMS (5-FAM-HMRSAMSGLHLVKRR-COOH) in assay buffer. After 45-minute incubation at 25° C., the reaction was stopped by the addition of 70 μl stop buffer (100 mM HEPES, pH 7.3, 40 mM EDTA, 0.015% Brij 35). Phosphorylated 5-FAM SAMS product is assessed using a Caliper EZ Reader LabChip microfluidics reader. Product conversion is determined by calculating the peak heights of the substrate and product and reporting the product/(product+substrate) peak ratio. The 10-point titration data were expressed as % maximum AMP activation. The results were plotted using 4 parameter fit and the inflection point reflecting 50% of the maximum activation was reported as the EC50.

A further test has as its system ob/ob and db/db mice. The conditions noted are these: following 8 weeks of administration; cited from earlier work.

For orientation: Emax means the greatest response seen or fitted, relative to the assay's reference. As a reminder, the EC50 is the concentration giving half of the maximal effect.

Sequence of recombinant human AMPK complex 7 (containing α2β1γ1) (P54646 whole entry): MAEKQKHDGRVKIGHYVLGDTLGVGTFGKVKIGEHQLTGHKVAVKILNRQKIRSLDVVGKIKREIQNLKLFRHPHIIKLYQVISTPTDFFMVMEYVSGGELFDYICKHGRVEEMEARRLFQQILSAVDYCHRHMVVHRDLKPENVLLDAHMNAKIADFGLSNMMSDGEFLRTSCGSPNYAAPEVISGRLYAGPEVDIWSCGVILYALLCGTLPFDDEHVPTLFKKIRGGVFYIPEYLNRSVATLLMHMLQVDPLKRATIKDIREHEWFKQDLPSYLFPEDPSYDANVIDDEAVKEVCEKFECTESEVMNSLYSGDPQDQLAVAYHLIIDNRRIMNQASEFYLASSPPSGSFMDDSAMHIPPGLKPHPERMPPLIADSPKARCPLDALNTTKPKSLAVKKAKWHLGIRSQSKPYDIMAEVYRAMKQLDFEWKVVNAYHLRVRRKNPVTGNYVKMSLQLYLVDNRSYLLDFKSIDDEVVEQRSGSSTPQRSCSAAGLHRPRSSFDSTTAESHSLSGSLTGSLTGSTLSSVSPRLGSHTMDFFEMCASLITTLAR
Sequence of recombinant human AMPK complex 7 (containing α2β1γ1) (Q9Y478 whole entry): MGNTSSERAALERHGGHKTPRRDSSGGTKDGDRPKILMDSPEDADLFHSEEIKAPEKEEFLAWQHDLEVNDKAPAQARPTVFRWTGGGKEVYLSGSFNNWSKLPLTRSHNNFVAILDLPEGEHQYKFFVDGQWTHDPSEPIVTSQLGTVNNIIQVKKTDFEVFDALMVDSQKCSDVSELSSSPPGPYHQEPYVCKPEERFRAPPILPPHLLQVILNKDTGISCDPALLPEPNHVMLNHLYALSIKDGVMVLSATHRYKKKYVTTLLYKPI
Sequence of recombinant human AMPK complex 7 (containing α2β1γ1) (P54619 whole entry partner): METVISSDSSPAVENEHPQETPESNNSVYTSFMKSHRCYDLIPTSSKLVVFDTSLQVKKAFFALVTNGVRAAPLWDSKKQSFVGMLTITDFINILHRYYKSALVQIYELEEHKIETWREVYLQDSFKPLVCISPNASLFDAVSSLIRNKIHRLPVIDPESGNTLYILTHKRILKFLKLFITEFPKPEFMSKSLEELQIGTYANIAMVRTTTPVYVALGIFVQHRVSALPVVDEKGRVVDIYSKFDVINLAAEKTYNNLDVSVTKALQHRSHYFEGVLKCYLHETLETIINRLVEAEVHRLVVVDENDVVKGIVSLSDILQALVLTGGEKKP

On to `C=CCO[C@@H]1CO[C@H]2[C@@H]1OC[C@H]2Oc1nc2nc(-c3ccc(-c4ccccc4)cc3)c(Cl)cc2[nH]1` [Example 18], for which, in test [1], the Emax amounted to 72% and the EC50 is 6 nM.
Taken in the same sequence, the figures for `O[C@@H]1CO[C@H]2[C@@H]1OC[C@H]2Oc1nc2nc(-c3ccc(-c4ccc(-n5cc(C(O)(O)C(F)(F)F)nn5)cc4)cc3)c(Cl)cc2[nH]1` [Example 128] were 286% and 2 nM.
`CN(C)CCOc1ccc(-c2ccc(-c3nc4nc(O[C@@H]5CO[C@H]6[C@@H]5OC[C@H]6O)[nH]c4cc3Cl)cc2)cc1` [Example 151]: in test [1], the Emax turned out to be 323% and the EC50 came to 2 nM.
For `O=c1[nH]ccn1-c1ccc(-c2ccc(-c3nc4nc(O[C@@H]5CO[C@H]6[C@@H]5OC[C@H]6O)[nH]c4cc3Cl)cc2)cc1` [Example 73], in that order: 357% and 4 nM.
As for `O=C1CC(c2ccc(-c3ccc(-c4nc5nc(O[C@@H]6CO[C@H]7[C@@H]6OC[C@H]7O)[nH]c5cc4Cl)cc3)cc2)CN1` (stereo partly drawn) [Example 149], in test [1], the Emax amounted to 322% and the EC50 worked out at 2 nM.
Taken in the same sequence, the figures for `O[C@@H]1CO[C@H]2[C@@H]1OC[C@H]2Oc1nc2nc(-c3ccc(-c4ccc(C5Cc6nccn6C5)cc4)cc3)c(Cl)cc2[nH]1` (stereo partly drawn) [Example 126] were 303% and 3 nM.
Taken in the same sequence, the figures for `O[C@@H]1CO[C@H]2[C@@H]1OC[C@H]2Oc1nc2nc(-c3ccc(-c4ccc(C5CNCCO5)cc4)cc3)c(Cl)cc2[nH]1` (stereo partly drawn) [Example 133] were 359% and 1 nM.
For `Cn1c(-c2ccc(-c3ccc(-c4nc5nc(O[C@@H]6CO[C@H]7[C@@H]6OC[C@H]7O)[nH]c5cc4Cl)cc3)cc2)cnc1N` [Example 127], in test [1], the Emax came out at 281% and the EC50 turned out to be 4 nM.
For `Cc1cc(-c2ccc(-c3ccc(-c4nc5nc(O[C@@H]6CO[C@H]7[C@@H]6OC[C@H]7O)[nH]c5cc4Cl)cc3)cc2)c(=O)[nH]n1` [Example 131], in that order: 289% and 3 nM.
For `Oc1ccnc(-c2ccc(-c3ccc(-c4nc5nc(O[C@@H]6CO[C@H]7[C@@H]6OC[C@H]7O)[nH]c5cc4Cl)cc3)cc2)n1` [Example 130], in that order: 291% and 2 nM.
Taken in the same sequence, the figures for `O=c1[nH]c(-c2ccc(-c3ccc(-c4nc5nc(O[C@@H]6CO[C@H]7[C@@H]6OC[C@H]7O)[nH]c5cc4Cl)cc3)cc2)no1` [Example 138] were 333% and 4 nM.
Consider `CC1(c2ccc(-c3ccc(-c4nc5nc(O[C@@H]6CO[C@H]7[C@@H]6OC[C@H]7O)[nH]c5cc4Cl)cc3)cc2)COC1` [Example 145], for which, in test [1], the Emax worked out at 348% and the half-maximal effective concentration (EC50) amounted to 8 nM.
Taken in the same sequence, the figures for `CC(C)(O)CN1Cc2cn(-c3ccc(-c4nc5nc(O[C@@H]6CO[C@H]7[C@@H]6OC[C@H]7O)[nH]c5cc4Cl)cc3)nc2C1` [Example 14, (3R,3aR,6R,6aR)-6-[[6-chloro-5-[4-[5-(2-hydroxy-2-methyl-propyl)-5,6-dihydro-4H-pyrrolo[3,4-c]pyrazol-5-ium-2-yl]phenyl]-1H-imidazo[4,5-b]pyridin-2-yl]oxy]-2,3,3a,5,6,6a-hexahydrofuro[3,2-b]furan-3-ol; 2,2,2-trifluoroacetate] were 276% and 29 nM.
`NC(=O)c1ncn([C@@H]2O[C@H](CO)[C@@H](O)[C@H]2O)c1N` [AICAR]: in the test with ob/ob and db/db mice, the blood glucose reduction is listed as 35%.
For `CC(CO)(CO)c1ccc(-c2ccc(-c3nc4nc(O[C@@H]5CO[C@H]6[C@@H]5OC[C@H]6O)[nH]c4cc3Cl)cc2)cc1` [Example 79], in test [1], the Emax was 337% and the EC50 was 2 nM.
Taken in the same sequence, the figures for `Cc1nnc(-c2ccc(-c3ccc(-c4nc5nc(O[C@@H]6CO[C@H]7[C@@H]6OC[C@H]7O)[nH]c5cc4Cl)cc3)cc2)o1` [Example 87] were 285% and 3 nM.
For `O=c1ncn(-c2ccc(-c3ccc(-c4nc5nc(O[C@@H]6CO[C@H]7[C@@H]6OC[C@H]7O)[nH]c5cc4Cl)cc3)cc2)[nH]1` [Example 129], in that order: 305% and 1 nM.
As for `N#Cc1ccc(-c2ccc(-c3nc4nc(O[C@@H]5CO[C@H]6[C@@H]5OC[C@H]6O)[nH]c4cc3Cl)cc2)c(F)c1` [Example 102], in test [1], the Emax was determined as 304% and the EC50 came out at 5 nM.
Taken in the same sequence, the figures for `O=C(O)C1CCC(c2ccc(-c3ccc(-c4nc5nc(O[C@@H]6CO[C@H]7[C@@H]6OC[C@H]7O)[nH]c5cc4Cl)cc3)cc2)=N1` (stereo partly drawn) [Example 125] were 350% and 6 nM.
For the compound `O=C(O)CCCc1ccc(-c2ccc(-c3nc4nc(O[C@@H]5CO[C@H]6[C@@H]5OC[C@H]6O)[nH]c4cc3Cl)cc2)cc1` [Example 86], in test [1], the Emax is 314% and the EC50 came out at 4 nM.
Taken in the same sequence, the figures for `OCc1ccc(-c2ccc(-c3nc4nc(O[C@@H]5CO[C@H]6[C@@H]5OC[C@H]6O)[nH]c4cc3Cl)cc2)cc1` [Example 146] were 354% and 4 nM.
In the case of `O[C@@H]1CO[C@H]2[C@@H]1OC[C@H]2Oc1nc2nc(-c3ccc(C#CC4CCNCC4)cc3)c(Cl)cc2[nH]1` [Example 71], in test [1], the Emax is 420% and the EC50 was 10 nM.
For `O=c1ccn(-c2ccc(-c3ccc(-c4nc5nc(O[C@@H]6CO[C@H]7[C@@H]6OC[C@H]7O)[nH]c5cc4Cl)cc3)cc2)[nH]1` [Example 150], in that order: 322% and 1 nM.
For `O[C@@H]1CO[C@H]2[C@@H]1OC[C@H]2Oc1nc2nc(-c3ccc(-c4ccc(Cn5ccnc5)cc4)cc3)c(Cl)cc2[nH]1` [Example 147], in that order: 348% and 4 nM.
Taken in the same sequence, the figures for `O[C@@H]1CO[C@H]2[C@@H]1OC[C@H]2Oc1nc2nc(-c3ccc(-c4ccc(Cn5ncnn5)cc4)cc3)c(Cl)cc2[nH]1` [Example 142] were 337% and 2 nM.
Turning to `CCN(CC)c1ccc(-c2ccc(-c3nc4nc(O[C@@H]5CO[C@H]6[C@@H]5OC[C@H]6O)[nH]c4cc3Cl)cc2)cc1` [Example 105], in test [1], the Emax worked out at 268% and the EC50 came to 5 nM.

These data come from patent US9290517B2, “Azabenzimidazole hexahydrofuro[3,2-b]furan derivatives” (Merck Sharp & Dohme Corp., priority 2012, dated 2016).
